# Results reported in ChEMBL document CHEMBL4396916, “Novel potent substituted 4-amino-2-thiopyrimidines as dual VEGFR-2 and BRAF kinase inhibitors” (Eur J Med Chem, 2019).
# What was measured:
# SN12C = assay: Growth inhibition of human SN12C cells at 10 uM incubated for 48 hrs by sulforhodamine B assay relative to control; assay type: functional; conditions: read-out: GI
# [1] = biological target: Mast/stem cell growth factor receptor Kit (Homo sapiens, UniProt P10721); assay: Inhibition of c-kit (unknown origin)
# Sequence of Mast/stem cell growth factor receptor Kit (P10721 whole entry): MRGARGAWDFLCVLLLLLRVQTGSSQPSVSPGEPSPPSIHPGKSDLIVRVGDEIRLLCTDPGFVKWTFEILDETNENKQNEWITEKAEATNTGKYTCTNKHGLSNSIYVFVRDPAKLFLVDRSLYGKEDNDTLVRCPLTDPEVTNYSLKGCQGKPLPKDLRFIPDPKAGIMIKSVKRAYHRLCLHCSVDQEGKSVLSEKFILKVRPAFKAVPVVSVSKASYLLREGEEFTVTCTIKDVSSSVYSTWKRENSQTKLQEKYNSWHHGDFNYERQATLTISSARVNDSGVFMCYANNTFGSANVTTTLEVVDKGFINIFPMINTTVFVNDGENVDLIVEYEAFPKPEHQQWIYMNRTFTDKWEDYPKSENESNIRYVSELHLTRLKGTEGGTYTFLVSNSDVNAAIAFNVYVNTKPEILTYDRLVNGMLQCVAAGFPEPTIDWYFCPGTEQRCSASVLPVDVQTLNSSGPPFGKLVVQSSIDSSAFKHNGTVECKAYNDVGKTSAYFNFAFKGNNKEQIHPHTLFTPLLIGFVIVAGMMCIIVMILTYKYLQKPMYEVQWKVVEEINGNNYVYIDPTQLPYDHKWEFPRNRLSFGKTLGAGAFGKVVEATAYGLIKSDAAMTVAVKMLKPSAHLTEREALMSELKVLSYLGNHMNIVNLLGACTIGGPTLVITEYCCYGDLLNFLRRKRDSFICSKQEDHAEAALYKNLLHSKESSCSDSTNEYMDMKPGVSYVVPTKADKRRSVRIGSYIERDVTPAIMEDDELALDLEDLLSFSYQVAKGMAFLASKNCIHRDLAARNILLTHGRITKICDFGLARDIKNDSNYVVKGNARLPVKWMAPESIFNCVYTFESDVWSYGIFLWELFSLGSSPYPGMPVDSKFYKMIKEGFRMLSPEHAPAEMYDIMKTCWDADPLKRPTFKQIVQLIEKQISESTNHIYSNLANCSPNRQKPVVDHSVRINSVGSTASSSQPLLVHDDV
# PC-3 = assay: Growth inhibition of human PC3 cells at 10 uM incubated for 48 hrs by sulforhodamine B assay relative to control; assay type: functional; conditions: PC-3, 48 h, read-out: GI
# SK-MEL-28 = assay: Growth inhibition of human SK-MEL-28 cells at 10 uM incubated for 48 hrs by sulforhodamine B assay relative to control; assay type: functional; conditions: SK-MEL-28, 48 h, read-out: GI
# NCI-H522 = assay: Growth inhibition of human NCI-H522 cells at 10 uM incubated for 48 hrs by sulforhodamine B assay relative to control; assay type: functional; conditions: NCI-H522, 48 h, read-out: GI
# MDA-MB-468 = assay: Growth inhibition of human MDA-MB-468 cells at 10 uM incubated for 48 hrs by sulforhodamine B assay relative to control; assay type: functional; conditions: MDA-MB-468, 48 h, read-out: GI
# SF-268 = assay: Growth inhibition of human SF268 cells at 10 uM incubated for 48 hrs by sulforhodamine B assay relative to control; assay type: functional; conditions: SF-268, 48 h, read-out: GI
# SR = assay: Growth inhibition of human SR cells at 10 uM incubated for 48 hrs by sulforhodamine B assay relative to control; assay type: functional; conditions: read-out: GI
# SK-MEL-2 = assay: Growth inhibition of human SK-MEL-2 cells at 10 uM incubated for 48 hrs by sulforhodamine B assay relative to control; assay type: functional; conditions: SK-MEL-2, 48 h, read-out: GI
# UO-31 = assay: Growth inhibition of human UO31 cells at 10 uM incubated for 48 hrs by sulforhodamine B assay relative to control; assay type: functional; conditions: UO-31, 48 h, read-out: GI
# [2] = biological target: Serine/threonine-protein kinase B-raf (Homo sapiens, UniProt P15056); assay: Inhibition of human wild type BRAF by Kinase-Glo luminescence assay
# Sequence of Serine/threonine-protein kinase B-raf (P15056 whole entry): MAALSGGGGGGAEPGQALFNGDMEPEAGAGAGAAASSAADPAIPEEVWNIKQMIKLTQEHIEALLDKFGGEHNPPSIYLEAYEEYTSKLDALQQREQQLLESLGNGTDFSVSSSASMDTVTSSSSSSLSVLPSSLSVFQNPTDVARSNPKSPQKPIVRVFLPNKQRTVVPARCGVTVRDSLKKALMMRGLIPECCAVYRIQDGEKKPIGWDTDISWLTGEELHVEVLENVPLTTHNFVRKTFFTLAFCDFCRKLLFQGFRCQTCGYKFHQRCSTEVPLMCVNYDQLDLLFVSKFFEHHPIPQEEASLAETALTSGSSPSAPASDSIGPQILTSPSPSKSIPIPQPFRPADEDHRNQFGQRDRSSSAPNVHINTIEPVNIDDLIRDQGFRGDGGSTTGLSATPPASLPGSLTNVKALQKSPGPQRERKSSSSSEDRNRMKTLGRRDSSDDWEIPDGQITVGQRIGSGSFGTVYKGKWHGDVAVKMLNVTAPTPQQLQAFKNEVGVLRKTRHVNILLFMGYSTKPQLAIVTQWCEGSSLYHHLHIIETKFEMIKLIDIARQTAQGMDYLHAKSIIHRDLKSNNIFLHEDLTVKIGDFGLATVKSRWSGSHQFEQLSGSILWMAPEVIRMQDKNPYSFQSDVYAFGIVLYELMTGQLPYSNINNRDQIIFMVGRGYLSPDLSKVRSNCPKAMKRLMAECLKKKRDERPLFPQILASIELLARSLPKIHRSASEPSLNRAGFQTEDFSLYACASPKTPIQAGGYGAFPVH
# CAKI-1 = assay: Growth inhibition of human Caki1 cells at 10 uM incubated for 48 hrs by sulforhodamine B assay relative to control; assay type: functional; conditions: CAKI-1, 48 h, read-out: GI
# SK-MEL-5 = assay: Growth inhibition of human SK-MEL-5 cells at 10 uM incubated for 48 hrs by sulforhodamine B assay relative to control; assay type: functional; conditions: SK-MEL-5, 48 h, read-out: GI
# Angiopoietin-1 receptor = Angiopoietin-1 receptor (Homo sapiens, UniProt Q02763); assay: Inhibition of TIE2 (unknown origin)
# 786-0 = assay: Growth inhibition of human 786-0 cells at 10 uM incubated for 48 hrs by sulforhodamine B assay relative to control; assay type: functional; conditions: 786-0, 48 h, read-out: GI
# [3] = biological target: RAF proto-oncogene serine/threonine-protein kinase (Homo sapiens, UniProt P04049); assay: Inhibition of RAF1 (unknown origin)
# Sequence of RAF proto-oncogene serine/threonine-protein kinase (P04049 whole entry): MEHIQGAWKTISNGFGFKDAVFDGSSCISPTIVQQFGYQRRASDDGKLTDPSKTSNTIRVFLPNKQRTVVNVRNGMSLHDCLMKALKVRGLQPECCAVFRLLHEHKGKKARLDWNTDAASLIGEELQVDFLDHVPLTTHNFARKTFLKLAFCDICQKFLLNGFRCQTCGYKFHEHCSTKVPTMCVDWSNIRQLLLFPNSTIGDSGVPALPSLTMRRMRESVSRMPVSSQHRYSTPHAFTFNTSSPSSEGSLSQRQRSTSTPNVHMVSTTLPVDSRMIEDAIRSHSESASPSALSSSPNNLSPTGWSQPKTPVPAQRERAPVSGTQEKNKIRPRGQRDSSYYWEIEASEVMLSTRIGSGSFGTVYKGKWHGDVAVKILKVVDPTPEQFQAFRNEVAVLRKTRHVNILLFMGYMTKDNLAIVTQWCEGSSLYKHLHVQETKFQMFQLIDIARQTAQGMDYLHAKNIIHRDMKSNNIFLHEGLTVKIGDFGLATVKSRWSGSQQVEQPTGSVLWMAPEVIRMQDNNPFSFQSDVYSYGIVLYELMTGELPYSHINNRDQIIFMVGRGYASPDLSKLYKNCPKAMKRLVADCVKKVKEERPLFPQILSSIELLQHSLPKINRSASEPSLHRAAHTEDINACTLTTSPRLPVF
# UACC-257 = assay: Growth inhibition of human UACC257 cells at 10 uM incubated for 48 hrs by sulforhodamine B assay relative to control; assay type: functional; conditions: UACC-257, 48 h, read-out: GI
# OVCAR-3 = assay: Growth inhibition of human OVCAR3 cells at 10 uM incubated for 48 hrs by sulforhodamine B assay relative to control; assay type: functional; conditions: OVCAR-3, 48 h, read-out: GI
# Malme-3M = assay: Growth inhibition of human MALME-3M cells at 10 uM incubated for 48 hrs by sulforhodamine B assay relative to control; assay type: functional; conditions: read-out: GI
# MCF7 [4] = assay: Growth inhibition of human MCF7 cells at 10 uM incubated for 48 hrs by sulforhodamine B assay relative to control; assay type: functional; conditions: MCF7, 48 h, read-out: GI
# A498 = assay: Growth inhibition of human A498 cells at 10 uM incubated for 48 hrs by sulforhodamine B assay relative to control; assay type: functional; conditions: A498, 48 h, read-out: GI
# U-251 = assay: Growth inhibition of human U251 cells at 10 uM incubated for 48 hrs by sulforhodamine B assay relative to control; assay type: functional; conditions: U-251, 48 h, read-out: GI
# DU-145 = assay: Growth inhibition of human DU145 cells at 10 uM incubated for 48 hrs by sulforhodamine B assay relative to control; assay type: functional; conditions: DU-145, 48 h, read-out: GI
# CCRF-CEM = assay: Growth inhibition of human CCRF-CEM cells at 10 uM incubated for 48 hrs by sulforhodamine B assay relative to control; assay type: functional; conditions: read-out: GI
# NCI-H23 = assay: Growth inhibition of human NCI-H23 cells at 10 uM incubated for 48 hrs by sulforhodamine B assay relative to control; assay type: functional; conditions: NCI-H23, 48 h, read-out: GI
# [5] = biological target: Fibroblast growth factor receptor 1 (Homo sapiens, UniProt P11362); assay: Inhibition of FGFR1 (unknown origin)
# Sequence of Fibroblast growth factor receptor 1 (P11362 whole entry): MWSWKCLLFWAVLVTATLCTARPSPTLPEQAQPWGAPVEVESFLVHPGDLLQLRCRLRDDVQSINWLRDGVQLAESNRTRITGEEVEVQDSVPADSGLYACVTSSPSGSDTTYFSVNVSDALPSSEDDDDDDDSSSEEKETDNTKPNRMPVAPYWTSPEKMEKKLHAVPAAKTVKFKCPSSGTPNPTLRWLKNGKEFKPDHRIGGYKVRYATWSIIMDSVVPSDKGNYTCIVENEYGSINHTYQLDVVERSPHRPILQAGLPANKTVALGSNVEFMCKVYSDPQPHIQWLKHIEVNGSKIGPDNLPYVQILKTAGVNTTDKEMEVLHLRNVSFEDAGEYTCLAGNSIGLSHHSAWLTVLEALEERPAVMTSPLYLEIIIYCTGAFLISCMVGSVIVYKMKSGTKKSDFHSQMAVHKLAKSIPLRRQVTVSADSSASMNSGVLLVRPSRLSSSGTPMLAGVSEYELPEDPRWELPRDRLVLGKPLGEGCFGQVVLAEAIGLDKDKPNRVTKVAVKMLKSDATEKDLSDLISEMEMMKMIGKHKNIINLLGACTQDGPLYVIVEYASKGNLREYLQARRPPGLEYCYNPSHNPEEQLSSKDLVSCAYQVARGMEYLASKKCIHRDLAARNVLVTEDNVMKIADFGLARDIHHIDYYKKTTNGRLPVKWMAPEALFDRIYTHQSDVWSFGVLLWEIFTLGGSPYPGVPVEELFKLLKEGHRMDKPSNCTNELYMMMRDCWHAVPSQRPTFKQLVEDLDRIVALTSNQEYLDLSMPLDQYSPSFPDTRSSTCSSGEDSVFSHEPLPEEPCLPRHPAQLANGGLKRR
# BT-549 = assay: Growth inhibition of human BT549 cells at 10 uM incubated for 48 hrs by sulforhodamine B assay relative to control; assay type: functional; conditions: BT-549, 48 h, read-out: GI
# MDA-MB-231 = assay: Growth inhibition of human MDA-MB-231 cells at 10 uM incubated for 48 hrs by sulforhodamine B assay relative to control; assay type: functional; conditions: MDA-MB-231, 48 h, read-out: GI
# [6] = biological target: Platelet-derived growth factor receptor beta (Homo sapiens, UniProt P09619); assay: Inhibition of PDGFR beta (unknown origin)
# Sequence of Platelet-derived growth factor receptor beta (P09619 whole entry): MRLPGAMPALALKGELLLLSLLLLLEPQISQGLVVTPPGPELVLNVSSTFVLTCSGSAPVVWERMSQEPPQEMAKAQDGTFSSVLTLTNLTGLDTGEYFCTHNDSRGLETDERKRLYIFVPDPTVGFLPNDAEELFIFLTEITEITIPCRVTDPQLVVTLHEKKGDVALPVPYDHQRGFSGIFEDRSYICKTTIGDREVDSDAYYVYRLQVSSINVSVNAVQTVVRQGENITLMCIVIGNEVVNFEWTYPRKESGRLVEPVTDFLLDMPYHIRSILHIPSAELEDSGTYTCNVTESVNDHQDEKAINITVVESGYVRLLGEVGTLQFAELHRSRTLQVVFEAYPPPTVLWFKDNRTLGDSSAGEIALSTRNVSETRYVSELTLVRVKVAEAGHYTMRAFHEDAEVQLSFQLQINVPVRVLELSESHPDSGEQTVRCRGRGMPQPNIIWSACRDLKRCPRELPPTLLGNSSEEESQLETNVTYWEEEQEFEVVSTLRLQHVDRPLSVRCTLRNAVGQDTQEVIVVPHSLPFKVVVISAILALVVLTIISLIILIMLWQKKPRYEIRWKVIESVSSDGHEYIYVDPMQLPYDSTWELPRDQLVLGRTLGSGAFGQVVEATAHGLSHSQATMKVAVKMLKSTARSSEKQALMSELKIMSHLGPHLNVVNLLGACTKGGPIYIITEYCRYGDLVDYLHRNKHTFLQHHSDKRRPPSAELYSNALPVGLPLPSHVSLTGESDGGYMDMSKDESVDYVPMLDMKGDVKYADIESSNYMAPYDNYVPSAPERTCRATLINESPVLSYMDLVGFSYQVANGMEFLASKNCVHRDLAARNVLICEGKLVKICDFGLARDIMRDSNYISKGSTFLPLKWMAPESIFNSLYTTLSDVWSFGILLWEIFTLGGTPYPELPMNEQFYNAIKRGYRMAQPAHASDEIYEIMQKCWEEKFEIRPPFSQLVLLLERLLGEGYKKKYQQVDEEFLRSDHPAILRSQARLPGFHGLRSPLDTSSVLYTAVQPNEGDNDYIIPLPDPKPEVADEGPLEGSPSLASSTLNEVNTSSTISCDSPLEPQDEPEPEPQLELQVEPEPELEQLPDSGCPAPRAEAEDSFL
# LOX IMVI = assay: Growth inhibition of human LOXIMVI cells at 10 uM incubated for 48 hrs by sulforhodamine B assay relative to control; assay type: functional; conditions: read-out: GI
# MCF7 [7] = assay: Cytotoxicity against human MCF7 cells expressing VEGFR2 and wild type BRAF measured after 48 hrs by sulforhodamine B assay; assay type: functional, cell-based; conditions: MCF7, 48 h
# RPMI-8226 = assay: Growth inhibition of human RPMI8226 cells at 10 uM incubated for 48 hrs by sulforhodamine B assay relative to control; assay type: functional; conditions: RPMI-8226, 48 h, read-out: GI
# EKVX = assay: Growth inhibition of human EKVX cells at 10 uM incubated for 48 hrs by sulforhodamine B assay relative to control; assay type: functional; conditions: read-out: GI
# HCT-116 = assay: Growth inhibition of human HCT116 cells at 10 uM incubated for 48 hrs by sulforhodamine B assay relative to control; assay type: functional; conditions: HCT-116, 48 h, read-out: GI
# T47D [8] = assay: Growth inhibition of human T47D cells at 10 uM incubated for 48 hrs by sulforhodamine B assay relative to control; assay type: functional; conditions: read-out: GI
# T47D [9] = assay: Cytotoxicity against human T47D cells expressing wild type BRAF measured after 48 hrs by sulforhodamine B assay; assay type: functional, cell-based
# UACC-62 = assay: Growth inhibition of human UACC62 cells at 10 uM incubated for 48 hrs by sulforhodamine B assay relative to control; assay type: functional; conditions: UACC-62, 48 h, read-out: GI
# HOP-62 = assay: Growth inhibition of human HOP62 cells at 10 uM incubated for 48 hrs by sulforhodamine B assay relative to control; assay type: functional; conditions: HOP-62, 48 h, read-out: GI
# SNB-19 = assay: Growth inhibition of human SNB19 cells at 10 uM incubated for 48 hrs by sulforhodamine B assay relative to control; assay type: functional; conditions: SNB-19, 48 h, read-out: GI
SMILES,inhibition of growth at 10 µM (SN12C) [%],IC50 [1] [µM],inhibition of growth at 10 µM (PC-3) [%],inhibition of growth at 10 µM (SK-MEL-28) [%],inhibition of growth at 10 µM (NCI-H522) [%],inhibition of growth at 10 µM (MDA-MB-468) [%],inhibition of growth at 10 µM (SF-268) [%],inhibition of growth at 10 µM (SR) [%],inhibition of growth at 10 µM (SK-MEL-2) [%],inhibition of growth at 10 µM (UO-31) [%],IC50 [2] [µM],inhibition of growth at 10 µM (CAKI-1) [%],inhibition of growth at 10 µM (SK-MEL-5) [%],IC50 (Angiopoietin-1 receptor) [µM],inhibition of growth at 10 µM (786-0) [%],IC50 [3] [µM],inhibition of growth at 10 µM (UACC-257) [%],inhibition of growth at 10 µM (OVCAR-3) [%],inhibition of growth at 10 µM (Malme-3M) [%],inhibition of growth at 10 µM (MCF7 [4]) [%],other results
O=C(CSc1nccc(Nc2ccc(N3CCOCC3)cc2)n1)c1ccc(F)cc1,20,0.25,27,19,49,38,35,18,10,27,0.11,41,37,0.48,13,0.13,19,18,29,31,inhibition of growth at 10 µM (A498): 36%; inhibition of growth at 10 µM (U-251): 16%; inhibition of growth at 10 µM (DU-145): 16%; inhibition of growth at 10 µM (CCRF-CEM): 19%; inhibition of growth at 10 µM (NCI-H23): 21%; IC50 [5]: 0.13 µM; inhibition of growth at 10 µM (BT-549): 31%; inhibition of growth at 10 µM (MDA-MB-231): 22%; IC50 [6]: 0.15 µM; inhibition of growth at 10 µM (LOX IMVI): 15%; IC50 (MCF7 [7]): 26.9 µM; inhibition of growth at 10 µM (RPMI-8226): 21%; inhibition of growth at 10 µM (EKVX): 23%; inhibition of growth at 10 µM (HCT-116): 32%; inhibition of growth at 10 µM (T47D [8]): 34%; IC50 (T47D [9]): 14.3 µM; inhibition of growth at 10 µM (UACC-62): 28%; inhibition of growth at 10 µM (HOP-62): 69%; inhibition of growth at 10 µM (SNB-19): 37%
CCOC(=O)c1ccc(Nc2ccnc(SCC(=O)c3ccc(C#N)cc3)n2)cc1,26,5.16,60,19,73,52,22,46,29,52,0.15,43,62,1.39,22,0.41,22,21,19,33,inhibition of growth at 10 µM (A498): 50%; inhibition of growth at 10 µM (U-251): 15%; inhibition of growth at 10 µM (DU-145): 21%; inhibition of growth at 10 µM (CCRF-CEM): 82%; inhibition of growth at 10 µM (NCI-H23): 20%; IC50 [5]: 0.28 µM; inhibition of growth at 10 µM (BT-549): 50%; inhibition of growth at 10 µM (MDA-MB-231): 19%; IC50 [6]: 0.39 µM; inhibition of growth at 10 µM (LOX IMVI): 20%; IC50 (MCF7 [7]): 13 µM; inhibition of growth at 10 µM (RPMI-8226): 80%; inhibition of growth at 10 µM (EKVX): 26%; inhibition of growth at 10 µM (HCT-116): 28%; inhibition of growth at 10 µM (T47D [8]): 90%; IC50 (T47D [9]): 2.18 µM; inhibition of growth at 10 µM (UACC-62): 61%; inhibition of growth at 10 µM (HOP-62): 37%; inhibition of growth at 10 µM (SNB-19): 10%
